According to patent publication US20170015555A1, “LONG-TERM PRESERVATION AND NOVEL APPLICATION OF CHLOROUS ACID AQUEOUS SOLUTION FORMULATION” (priority 2013, published 2017):

How the values were obtained:
[1] = tested on: E. coli: Escherichia coli IF03927; experiment: Permeability of pathogenic microbes when treatment sheets were laid on vomit; assay type: cell-based; design: unit not given here; settings: 1000 ppm available chlorine
Description: (§1) 1) Chlorous acid aqueous solution formulation (see Example 1: Table 11) Treatment sheet (material: 100% cotton): (about 27×40 cm) *Impregnated at a ratio of weight of treatment sheet (g): amount of liquid (ml)=1:3 2) Imitation vomit (hereinafter, referred to as vomit) Miso solution: adjusted to pH 2 with hydrochloric acid 3) Test Microbes that were used E. coli: Escherichia coli IF03927 Staphylococcus aureus: Staphylococcus aureus IF0 12732 Thermoduric Microbes (Bacillus cereus): Bacillus cereus NBRC15305 Microbes of the genus Salmonella: Salmonella Enteritidis IF03313 Enterohemorrhagic Escherichia coli 0157: Escherichia coli 0157 Enterohemorrhagic Escherichia coli 0111: Escherichia coli 0111 Enterohemorrhagic Escherichia coli 026: Escherichia coli O26
(§2) Permeability of pathogenic microbes into a treatment sheet when treating vomit was examined to compare effects of preventing secondary contamination. (1) Imitation vomit is spread in an area about the size of an A4 sheet. (2) 30 agent solution-containing treatment sheets were laid thereon and left standing for 10 minutes. (3) Treatment sheets were removed one at a time from the top. After diluting with saline, the sample was spread in a petri dish and cultured.

[2] = tested on: Staphylococcus aureus IF0 12732; experiment: as above; assay type: cell-based; design: unit not given here; settings: 1000 ppm available chlorine
Description: as §1, §2

[3] = tested on: Thermoduric Microbes (Bacillus cereus): Bacillus cereus NBRC15305; experiment: as above; assay type: cell-based; design: unit not given here; settings: 1000 ppm available chlorine
Description: as §1, §2

[4] = Deodorizing effect (chemical deodorization, gas detector tube); settings: 400 ppm, spray 20 cc
Description: In order to evaluate tests on deodorizing effects, the present Example examined deodorizing effects by using standards regarding air freshening and deodorization ([II]-2 Method of Testing Deodorizing Efficacy (Chemical Deodorization)) set forth by the Air Fresheners and Deodorizers Conference (http://www.houkou.gr.jp/) as the efficacy testing method, which is adopted by Japan Food Research Laboratories.
Ammonium odor: Ammonium Standard Solution II (Wako Pure Chemical Industries, for testing malodorous substances) Amine odor: methyl mercaptan standard solution (Wako Pure Chemical Industries, for testing malodorous substances) Sulfur odor: hydrogen sulfide (self-made, used hydrogen sulfide that was generated by adding sulfuric acid to zinc sulfide)
Gas detector tube made by GASTEC Corporation Ammonium odor: Detector tube ammonium 3 L made by GASTEC Corporation Amino odor: Detector tube methyl mercaptan 71 made by GASTEC Corporation Sulfur odor: Detector tube hydrogen sulfide 4 LL made by GASTEC Corporation
Tests were conducted in compliance with ([II]-2 Method of Testing Deodorizing Efficacy (Chemical Deodorization)) set forth by the Air Fresheners and Deodorizers Conference.
The tests were carried out by static culture method, using a commercially-available airbag with a spigot having a volume of about 10 L as test containers. The volume of airbags was appropriately changed in accordance with the size of the product.
The bags were filled with odorless air. Malodor concentrations were measured over time at room temperature (about 20° C.). (3 points or higher, detection tube method (FIG. 16), measured by an instrument analysis method or olfactory measurement method. When decrease in the blank was observed, the decrease was suitably corrected. When measuring by olfactory measuring method, the airbag spigot was opened for direct sniffing, or gas was transferred to an odor bag while wearing a mask to perform olfactory measurement in an autonomic respiration form. Measured air was not returned to the source).
For ammonium odor, the residual concentrations were detected and recorded for control (no specimen), 20 ml (cc) of distilled water, sodium hypochlorite (expressed as Na hypochlorite, 400 ppm), and chlorous acid aqueous solution (expressed as CAAS, 400 ppm) prior to spraying and 0 hour, 3 hours, 6 hours, 9 hours, and 24 hours after spraying.
It is known that an odorous substance adsorbs to an airbag and naturally decreases when the odorous substance is in the airbag. In this regard, the amount of loss due to such a natural decrease was measured to normalize the observed values in a control segment.
For the values, the values of the raw data were recorded. The concentration prior to spraying was adjusted and the controls were normalized to be 100. The results are shown in the following Table (In the Table, Cont indicates controls and h indicates time).

pathogenic microbes = experiment: Preventing secondary contamination upon treating vomit, summary over all tested microbes; assay type: cell-based
Description: as §1, §2

## OCl [Sodium Hypochlorite, sodium hypochlorite]
[1]; 1 sheet, Day 0 at 25° C.
  microbes in treatment sheet laid on imitation vomit: <10
[1]; 1 sheet, Day 7 at 25° C.
  microbes in treatment sheet laid on imitation vomit: >10^6
[1]; 2 sheets, Day 0 at 25° C.
  microbes in treatment sheet laid on imitation vomit: <10
[1]; 2 sheets, Day 7 at 25° C.
  microbes in treatment sheet laid on imitation vomit: >10^6
[1]; 3 sheets, Day 0 at 25° C.
  microbes in treatment sheet laid on imitation vomit: <10
[1]; 3 sheets, Day 7 at 25° C.
  microbes in treatment sheet laid on imitation vomit: >10^6
[1]; 4 sheets, Day 0 at 25° C.
  microbes in treatment sheet laid on imitation vomit: <10
[1]; 4 sheets, Day 7 at 25° C.
  microbes in treatment sheet laid on imitation vomit: >10^6
[1]; 5 sheets, Day 0 at 25° C.
  microbes in treatment sheet laid on imitation vomit: <10
[1]; 5 sheets, Day 7 at 25° C.
  microbes in treatment sheet laid on imitation vomit: >10^6
[1]; 6 sheets, Day 0 at 25° C.
  microbes in treatment sheet laid on imitation vomit: <10
[1]; 6 sheets, Day 7 at 25° C.
  microbes in treatment sheet laid on imitation vomit: >10^6
[1]; 8 sheets, Day 0 at 25° C.
  microbes in treatment sheet laid on imitation vomit: <10
[1]; 8 sheets, Day 7 at 25° C.
  microbes in treatment sheet laid on imitation vomit: >10^6
[1]; 10 sheets, Day 0 at 25° C.
  microbes in treatment sheet laid on imitation vomit: <10
[1]; 10 sheets, Day 7 at 25° C.
  microbes in treatment sheet laid on imitation vomit: >10^6
[1]; 20 sheets, Day 0 at 25° C.
  microbes in treatment sheet laid on imitation vomit: <10
[1]; 20 sheets, Day 7 at 25° C.
  microbes in treatment sheet laid on imitation vomit: >10^6
[1]; 30 sheets, Day 0 at 25° C.
  microbes in treatment sheet laid on imitation vomit: <10
[1]; 30 sheets, Day 7 at 25° C.
  microbes in treatment sheet laid on imitation vomit: >10^6
[2]; 1 sheet, Day 0 at 25° C.
  microbes in treatment sheet laid on imitation vomit: <10
[2]; 1 sheet, Day 7 at 25° C.
  microbes in treatment sheet laid on imitation vomit: >10^6
[2]; 2 sheets, Day 0 at 25° C.
  microbes in treatment sheet laid on imitation vomit: <10
[2]; 2 sheets, Day 7 at 25° C.
  microbes in treatment sheet laid on imitation vomit: >10^6
[2]; 3 sheets, Day 0 at 25° C.
  microbes in treatment sheet laid on imitation vomit: <10
[2]; 3 sheets, Day 7 at 25° C.
  microbes in treatment sheet laid on imitation vomit: >10^6
[2]; 4 sheets, Day 0 at 25° C.
  microbes in treatment sheet laid on imitation vomit: <10
[2]; 4 sheets, Day 7 at 25° C.
  microbes in treatment sheet laid on imitation vomit: >10^6
[2]; 5 sheets, Day 0 at 25° C.
  microbes in treatment sheet laid on imitation vomit: <10
[2]; 5 sheets, Day 7 at 25° C.
  microbes in treatment sheet laid on imitation vomit: >10^6
[2]; 6 sheets, Day 0 at 25° C.
  microbes in treatment sheet laid on imitation vomit: <10
[2]; 6 sheets, Day 7 at 25° C.
  microbes in treatment sheet laid on imitation vomit: >10^6
[2]; 8 sheets, Day 0 at 25° C.
  microbes in treatment sheet laid on imitation vomit: <10
[2]; 8 sheets, Day 7 at 25° C.
  microbes in treatment sheet laid on imitation vomit: 1.1 × 10^4
[2]; 10 sheets, Day 0 at 25° C.
  microbes in treatment sheet laid on imitation vomit: <10
[2]; 10 sheets, Day 7 at 25° C.
  microbes in treatment sheet laid on imitation vomit: 7.1 × 10^2
[2]; 20 sheets, Day 0 at 25° C.
  microbes in treatment sheet laid on imitation vomit: <10
[2]; 20 sheets, Day 7 at 25° C.
  microbes in treatment sheet laid on imitation vomit: <10
[2]; 30 sheets, Day 0 at 25° C.
  microbes in treatment sheet laid on imitation vomit: <10
[2]; 30 sheets, Day 7 at 25° C.
  microbes in treatment sheet laid on imitation vomit: <10
[3]; 1 sheet, Day 0 at 25° C.
  microbes in treatment sheet laid on imitation vomit: <10
[3]; 1 sheet, Day 7 at 25° C.
  microbes in treatment sheet laid on imitation vomit: >10^6
[3]; 2 sheets, Day 0 at 25° C.
  microbes in treatment sheet laid on imitation vomit: <10
[3]; 2 sheets, Day 7 at 25° C.
  microbes in treatment sheet laid on imitation vomit: >10^6
[3]; 3 sheets, Day 0 at 25° C.
  microbes in treatment sheet laid on imitation vomit: <10
[3]; 3 sheets, Day 7 at 25° C.
  microbes in treatment sheet laid on imitation vomit: >10^6
[3]; 4 sheets, Day 0 at 25° C.
  microbes in treatment sheet laid on imitation vomit: <10
[3]; 4 sheets, Day 7 at 25° C.
  microbes in treatment sheet laid on imitation vomit: >10^6
[3]; 5 sheets, Day 0 at 25° C.
  microbes in treatment sheet laid on imitation vomit: <10
[3]; 5 sheets, Day 7 at 25° C.
  microbes in treatment sheet laid on imitation vomit: >10^6
[3]; 6 sheets, Day 0 at 25° C.
  microbes in treatment sheet laid on imitation vomit: <10
[3]; 6 sheets, Day 7 at 25° C.
  microbes in treatment sheet laid on imitation vomit: >10^6
[3]; 8 sheets, Day 0 at 25° C.
  microbes in treatment sheet laid on imitation vomit: <10
[3]; 8 sheets, Day 7 at 25° C.
  microbes in treatment sheet laid on imitation vomit: 1.1 × 10^4
[3]; 10 sheets, Day 0 at 25° C.
  microbes in treatment sheet laid on imitation vomit: <10
[3]; 10 sheets, Day 7 at 25° C.
  microbes in treatment sheet laid on imitation vomit: 7.1 × 10^2
[3]; 20 sheets, Day 0 at 25° C.
  microbes in treatment sheet laid on imitation vomit: <10
[3]; 20 sheets, Day 7 at 25° C.
  microbes in treatment sheet laid on imitation vomit: <10
[3]; 30 sheets, Day 0 at 25° C.
  microbes in treatment sheet laid on imitation vomit: <10
[3]; 30 sheets, Day 7 at 25° C.
  microbes in treatment sheet laid on imitation vomit: <10
[4]; 0 h after spraying
  residual concentration of ammonium, after correction (Control = 100): 9
  residual concentration of ammonium, before correction: 30 ppm
[4]; 3 h after spraying
  residual concentration of ammonium, after correction (Control = 100): 17
  residual concentration of ammonium, before correction: 50 ppm
[4]; 6 h after spraying
  residual concentration of ammonium, after correction (Control = 100): 21
  residual concentration of ammonium, before correction: 50 ppm
[4]; 9 h after spraying
  residual concentration of ammonium, after correction (Control = 100): 23
  residual concentration of ammonium, before correction: 40 ppm
[4]; 24 h after spraying
  residual concentration of ammonium, after correction (Control = 100): 28
  residual concentration of ammonium, before correction: 40 ppm
[4]; before spraying
  residual concentration of ammonium, after correction (Control = 100): 100
  residual concentration of ammonium, before correction: 320 ppm
Pathogenic microbes
  sterilization/removal of pathogenic microbes in stacked treatment sheets: able to sterilize pathogenic microbes from the first sheet
